In PMC8159961, “Exploring protein hotspots by optimized fragment pharmacophores” (Nature Communications, 2021):

What was measured:
human 5-HT6 receptor = target: T1, human 5-HT6 receptor (Homo sapiens, UniProt P50406); assay: GPCR radioligand binding assay, [3H]-LSD displacement, HEK293 membranes; conditions: for 5-HT6 % Inhibition by plate position: 10 µM; for %inh 5-HT6 average: average of exp_1 and exp_2; for %inh 5-HT6 corrected*: average, values below 0 and above 100% were set as 0 and 100; for %inh 5-HT6 exp_1: replicate exp_1; for %inh 5-HT6 exp_2: replicate exp_2
T1 construct: expressed in transfected cells
T1 sequence (P50406 whole entry): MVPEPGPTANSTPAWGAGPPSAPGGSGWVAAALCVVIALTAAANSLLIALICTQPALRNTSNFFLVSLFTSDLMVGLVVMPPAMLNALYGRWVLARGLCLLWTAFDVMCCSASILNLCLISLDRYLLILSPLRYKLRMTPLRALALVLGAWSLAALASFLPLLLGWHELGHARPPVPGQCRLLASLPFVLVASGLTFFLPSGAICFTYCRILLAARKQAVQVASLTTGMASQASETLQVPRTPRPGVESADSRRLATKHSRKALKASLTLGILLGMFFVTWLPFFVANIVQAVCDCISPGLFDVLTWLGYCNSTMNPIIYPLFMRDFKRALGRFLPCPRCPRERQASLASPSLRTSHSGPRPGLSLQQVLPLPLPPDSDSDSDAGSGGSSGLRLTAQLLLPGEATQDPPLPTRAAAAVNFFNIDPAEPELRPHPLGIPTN

human 5-HT1A receptor = target: T2, human 5-HT1A receptor (Homo sapiens, UniProt P08908); assay: GPCR radioligand binding assay, [3H]-8-OH-DPAT displacement, HEK293 membranes; conditions: for 5-HT1A % Inhibition by plate position: 10 µM; for %inh 5-HT1A average: average of exp_1 and exp_2; for %inh 5-HT1A exp_1: replicate exp_1; for %inh 5-HT1A exp_2: replicate exp_2; for %inh 5-HT1A corrected*: average, values below 0 and above 100% were set as 0 and 100
T2 construct: expressed in transfected cells
T2 sequence (P08908 1-422): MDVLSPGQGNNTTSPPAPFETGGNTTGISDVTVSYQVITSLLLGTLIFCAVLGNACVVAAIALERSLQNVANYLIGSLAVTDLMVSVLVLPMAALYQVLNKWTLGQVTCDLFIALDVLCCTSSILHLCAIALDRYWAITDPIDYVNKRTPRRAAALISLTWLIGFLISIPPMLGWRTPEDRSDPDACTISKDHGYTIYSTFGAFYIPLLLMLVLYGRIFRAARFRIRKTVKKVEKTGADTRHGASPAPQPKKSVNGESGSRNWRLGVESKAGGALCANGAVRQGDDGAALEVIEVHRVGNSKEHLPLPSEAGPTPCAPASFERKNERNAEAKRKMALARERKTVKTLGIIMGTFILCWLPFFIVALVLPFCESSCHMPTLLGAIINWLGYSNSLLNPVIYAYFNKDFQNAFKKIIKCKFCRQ

human 5-HT7b receptor = target: T3, human 5-HT7b receptor (Homo sapiens, UniProt P34969); assay: GPCR radioligand binding assay, [3H]-5-CT displacement, HEK293 membranes; conditions: for 5-HT7 % Inhibition by plate position: 10 µM; for %inh 5-HT7 average: average of exp_1 and exp_2; for %inh 5-HT7 exp_1: replicate exp_1; for %inh 5-HT7 exp_2: replicate exp_2
T3 construct: expressed in transfected cells
T3 sequence (P34969 1-432): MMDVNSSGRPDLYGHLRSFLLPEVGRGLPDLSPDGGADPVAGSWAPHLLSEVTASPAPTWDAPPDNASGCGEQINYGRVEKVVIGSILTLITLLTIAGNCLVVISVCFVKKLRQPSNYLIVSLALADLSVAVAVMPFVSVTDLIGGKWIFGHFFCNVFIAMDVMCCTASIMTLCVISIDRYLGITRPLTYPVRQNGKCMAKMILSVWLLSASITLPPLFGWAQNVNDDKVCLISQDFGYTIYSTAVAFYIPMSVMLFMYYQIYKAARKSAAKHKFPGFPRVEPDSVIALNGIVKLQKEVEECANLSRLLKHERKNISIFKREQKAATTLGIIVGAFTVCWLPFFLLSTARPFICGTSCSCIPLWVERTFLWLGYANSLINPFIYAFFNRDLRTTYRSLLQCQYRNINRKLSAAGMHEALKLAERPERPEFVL

Structure (SMILES) | 5-HT6 % Inhibition by plate position (human 5-HT6 receptor) | %inh 5-HT6 average (human 5-HT6 receptor) | %inh 5-HT6 corrected* (human 5-HT6 receptor) | %inh 5-HT6 exp_1 (human 5-HT6 receptor) | %inh 5-HT6 exp_2 (human 5-HT6 receptor) | 5-HT1A % Inhibition by plate position (human 5-HT1A receptor) | %inh 5-HT1A average (human 5-HT1A receptor) | %inh 5-HT1A exp_1 (human 5-HT1A receptor) | %inh 5-HT1A exp_2 (human 5-HT1A receptor) | 5-HT7 % Inhibition by plate position (human 5-HT7b receptor) | %inh 5-HT7 average (human 5-HT7b receptor) | %inh 5-HT7 exp_1 (human 5-HT7b receptor) | %inh 5-HT7 exp_2 (human 5-HT7b receptor) | %inh 5-HT1A corrected* (human 5-HT1A receptor)
Cc1nc(-c2ccccc2)cs1 [A7] | 50% | 50% | 50% | 50% | 50% | 0% | -4.34% | -13% | 4% | 0% | -0.168% | -4% | 3.71% | 
Cc1cc(-c2ccccc2)n[nH]1 [A8] | 48% | 48% | 48% | 44% | 52% |  | 9% | 9% | 9% | 34% |  | 37% | 32% | 9%
Brc1ccc(-c2ccon2)cc1 [A9] | 34% | 34% | 34% | 40% | 29% |  | 3.49% | 4% | 3% | 5.57% |  | 1.16% | 10% | 3.49%
COc1ccccc1N1CCNCC1 [A10] | 69% | 69% | 69% | 80% | 58% | 100% | 102% | 101% | 103% | 72% |  | 67% | 76% | 
COc1ccccc1C1CCNCC1 [A11] | 71% | 71% | 71% | 82% | 59% |  | 99% | 100% | 98% | 73% |  | 64% | 81% | 99%
CS(=O)(=O)c1ccc(N2CCNCC2)cc1 [B1] | 28% | 28% | 28% | 28% | 28% |  | 4.22% | 8.43% | 0% | 35% |  | 29% | 40% | 4.22%
O=C1CNCCN1c1ccccc1 [B2] | 47% | 47% | 47% | 50% | 44% |  | 4.62% | 9% | 0% | 0% | -2.46% | 14% | -19% | 4.62%
O=C1CCCc2occc21 [B3] | 34% | 34% | 34% | 37% | 30% | 0% | -4.51% | -9% | 0% | 0% | -2.76% | 8% | -14% | 
NC1CCc2ccccc21 (stereo not drawn) [B4] | 16% | 16% | 16% | 16% | 17% |  | 17% | 19% | 16% | 28% |  | 28% | 28% | 17%
N[C@H]1c2ccccc2C[C@H]1CO [B5] | 25% | 25% | 25% | 25% | 25% | 0% | -0.612% | -19% | 18% | 6% |  | 14% | -1% | 
O=c1[nH]ncc2c1oc1ccccc12 [B6] | 26% | 26% | 26% | 18% | 34% | 0% | -6.46% | -14% | 0.625% | 0% | -4% | 3.34% | -11% | 
O=C1NC(=O)C2(CCc3ccccc32)N1 (stereo not drawn) [B7] | 32% | 32% | 32% | 32% | 31% | 0% | -12% | -22% | -1.44% | 3.8% |  | 10% | -2.31% | 
CS(=O)(=O)c1ccc(OC(F)(F)F)cc1 [B8] | 4% | 4% | 4% | 0% | 8% | 0% | -30% | -20% | -40% | 6% |  | 3.74% | 8% | 
Cc1cnc(C(F)(F)F)cn1 [B9] | 32% | 32% | 32% | 32% | 33% |  | 1.1% | -7% | 9% | 11% |  | 14% | 7% | 1.1%
CN1CC(=O)NC1=O [B10] | 35% | 35% | 35% | 31% | 40% | 0% | -4.34% | 4% | -13% | 0% | -7.6% | -15% | 0% | 
Cc1cc(N)no1 [B11] | 37% | 37% | 37% | 40% | 34% | 0% | -21% | -18% | -24% | 1.49% |  | -8% | 11% | 
Fc1ccc(CC2CCCNC2)cc1 (stereo not drawn) [C1] | 42% | 42% | 42% | 47% | 37% |  | 21% | 23% | 19% | 22% |  | 27% | 18% | 21%
c1ccc(-c2ccncc2)cc1 [C2] | 36% | 36% | 36% | 32% | 40% | 0% | -6% | -11% | 0% | 6% |  | 14% | -2% | 
NC(c1ccccc1)c1ccccc1 [C3] | 25% | 25% | 25% | 16% | 33% | 0% | -12% | -22% | -1.84% | 0% | -9% | -16% | -1% | 
